Measurements as given in patent US20160106102A1, “KNOWN AND NEW HETEROCYCLIC COMPOUNDS AS PEST CONTROL AGENTS” (BAYER CROPSCIENCE AKTIENGESELLSCHAFT, priority 2013, published 2016).

Experiments:
Spodoptera frugiperda = Spodoptera frugiperda - spray test (SPODFR); format: in vivo; settings: application rate of 500 g/ha; after 7 days; armyworm caterpillars on sprayed maize leaf discs; 100% = all caterpillars killed
Experimental: Spodoptera frugiperda—Spray Test (SPODFR)
(§1) Solvent: 78.0 parts by weight of acetone • • 1.5 parts by weight of dimethylformamide
(§2) Emulsifier: alkylaryl polyglycol ether
(§3) To produce an appropriate active ingredient formulation, 1 part by weight of active ingredient is dissolved using the specified parts by weight of solvent and made up with water containing an emulsifier concentration of 1000 ppm until the desired concentration is attained. To produce further test concentrations, the preparation is diluted with emulsifier-containing water.
Leaf discs of maize (Zea mays) are sprayed with an active ingredient formulation of the desired concentration and, after drying, populated with caterpillars of the armyworm (Spodopterafrugiperda).
After 7 days, the efficacy in % is determined. 100% means that all the caterpillars have been killed; 0% means that no caterpillars have been killed.

Phaedon cochleariae = Phaedon cochleariae - spray test (PHAECO); format: in vivo; settings: application rate of 500 g/ha; after 7 days; larvae of the mustard beetle on sprayed Chinese cabbage leaf discs; 100% = all larvae killed
Experimental: Phaedon cochleariae—Spray Test (PHAECO)
as §1, §2, §3
Discs of Chinese cabbage leaves (Brassica pekinensis) are sprayed with an active ingredient formulation of the desired concentration and, after drying, populated with larvae of the mustard beetle (Phaedon cochleariae).
After 7 days, the efficacy in % is determined. 100% means that all the beetle larvae have been killed; 0% means that no beetle larvae have been killed.

[1] = log P determination by LC-MS in the acidic range; format: physicochemical
Source text: The LC-MS determination in the acidic range is effected at pH 2.7 using 0.1% aqueous formic acid and acetonitrile (contains 0.1% formic acid) as eluents, linear gradient from 10% acetonitrile to 95% acetonitrile. Alternatively, the determination is effected in the acidic range at pH 2.3 using 0.1% aqueous phosphoric acid and acetonitrile as eluents; linear gradient from 10% acetonitrile to 95% acetonitrile.

Myzus persicae [2] = assay: Myzus persicae - sachet test; format: in vivo; settings: 100% = all animals killed
How it was run: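 Green peach aphids feed through a sealed sachet on nutrient medium containing the water-diluted formulation (solvents: 2% N-methylpyrrolidone, 2% diacetone alcohol). Percent mortality read after the chosen time; 100% means all animals killed.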

Myzus persicae [3] = assay: Myzus persicae - spray test; format: in vivo; settings: application rate of 500 g/ha; after 6 days; sprayed Chinese cabbage leaf discs infested by all stages; 100% = all aphids killed
How it was run: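 Chinese cabbage leaf discs infested with all stages of green peach aphid sprayed with compound in acetone/DMF formulation with alkylaryl polyglycol ether emulsifier, diluted in emulsifier-containing water. Efficacy (% aphids killed) assessed after 6 days.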

Tetranychus urticae = Tetranychus urticae - spray test, OP-resistant (TETRUR); format: in vivo; settings: application rate of 500 g/ha; after 6 days; bean leaf discs infested by all stages; 100% = all spider mites killed
Experimental: Tetranychus urticae—spray test, OP-resistant (TETRUR)
as §1, §2, §3
Discs of bean leaves (Phaseolus vulgaris) infested by all stages of the greenhouse red spider mite (Tetranychus urticae) are sprayed with an active ingredient formulation of the desired concentration.
After 6 days, the efficacy in % is determined. 100% means that all the spider mites have been killed; 0% means that no spider mites have been killed.

[4] = application rate of 6 ppm in nutrient medium
[5] = application rate of 30 ppm in nutrient medium
[6] = Table 2, compounds of the formula (I-2), acidic range pH 2.7 or pH 2.3

Compound	efficacy in % (Spodoptera frugiperda) [%]	efficacy in % (Phaedon cochleariae) [%]	log P (acid) ([1]; LC-MS in the acidic range)	efficacy (kill in %) (Myzus persicae [2]; [4]) [%]	efficacy (kill in %) (Myzus persicae [2]; [5]) [%]	efficacy in % (Myzus persicae [3]) [%]	efficacy in % (Tetranychus urticae) [%]	log P (acid) [1, 6]
Cc1cc(N(C(=O)c2cccnc2)C(=O)c2cccc(Cl)c2)nn1C(=O)c1cccc(Cl)c1 [Compound I-1-22]	83	83	3.98	100	100	100		
O=C(Nc1ccn(-c2ncccc2Cl)n1)c1cccnc1 [Compound I-1-48]	100	100	1.25		100			
Cc1cc(NC(=O)c2cccnc2)nn1C(=O)C(C)C [Compound I-1-130]	100	100	1.95	100	100	90		
CCCC(=O)n1nc(NC(=O)c2cccnc2)cc1C [Compound I-1-131]	100	100	1.94	100	100	90	90	
CCC(C)n1nc(NC(=O)c2cccnc2)cc1C (stereo not shown) [Compound I-1-205]			1.59		100	100	90	
CCC(CC)n1nc(NC(=O)c2cccnc2)cc1C [Compound I-1-210]			1.92		80		90	
Cc1nc(Cn2nc(NC(=O)c3cccnc3)cc2C)no1 [Compound I-1-282]			0.9	100	100	90	90	
Cc1cc(NC(=O)c2cccnc2)nn1C(=O)NC(C)c1ncccn1 (stereo not shown) [Compound I-1-333]			1.29	100	100	90		
Cc1cc(NC(=O)c2cccnc2)nn1C(=O)NC(C)(C)c1ncccn1 [Compound I-1-335]			1.67	100	100	90		
Cc1cc(C)nc(CNC(=O)n2nc(NC(=O)c3cccnc3)cc2C)n1 [Compound I-1-338]			1.43	100	100	90		
Cc1cc(NC(=O)c2cccnc2)nn1Cc1nc2ccc(Cl)cc2o1 [Compound I-1-342]			1.82	100	100	90		
Cc1cc(NC(=S)c2cccnc2)nn1Cc1ncccn1 [Compound I-1-344]			1.24	100	100	100		
Cc1cc(NC(=O)c2cccnc2)nn1C(=O)c1ncccn1 [Compound I-1-345]			1.11	100	100	90		
Cc1cc(N(C)C(=O)c2cccnc2)nn1Cc1ncccn1 [Compound I-1-346]		100	0.63	100	100	100		
CCc1nn2c(=O)cc(Cn3nc(NC(=O)c4cccnc4)cc3C)nc2s1 [Compound I-1-352]			1.23		100	90		
COc1ccc([N+](=O)[O-])cc1Cn1cnc(NC(=O)c2cccnc2)n1 [Compound I-2-4]					100	90		1.13
COc1nc(NC(=O)c2cccnc2)nn1C [Compound I-2-16]					100	90		0.00
